In experiment [1] the test system is CCRF-CEM cells. Briefly: Cell cycle distribution by flow cytometry (PI). It counts as cell-based, human. As to conditions: 2 × IC50, 72 h. The method, then: Control cells were devoid of 1 and negative controls contained 1% ethanol. After treatment, cells were harvested and washed twice with ice cold PBS. Then, cells were fixed with 70% cold ethanol and kept at 4°C for 24 h. Before analysis, the cells were washed twice with PBS and stained with a solution containing propidium iodide (PI, 50 μg/mL, Sigma-Aldrich CO, USA) and RNase A (100 μg/mL, Sigma-Aldrich CO, USA) in PBS (pH 7.4) for 30 min in the dark. DNA content was evaluated by flow cytometry. The relative distribution of at least 20,000 cells was analyzed using FlowJo software version 7.6.2 (Tree Star, Inc. OR, USA).

Experiment [2] concerns CCRF-CEM acute lymphoblastic leukemia cells. Briefly: MTT cell proliferation assay. It counts as cell-based, human. As to conditions: for IC50: CCRF-CEM, MTT, 72 h, read-out: IC50 values and 95% confidence limits (lower, upper). The method, then:
(§1) The HEK293T non-tumor derived cell line and human isolated mononuclear cells (PBMC) were also tested. […] Cells were cultured at 37°C in a 5% CO2 humidified environment.
(§2) To investigate the cytotoxic potential of the isolated compounds, the MTT colorimetric assay was performed. […] The compounds were evaluated at a final maximum concentration of 100 μM. After 72 hours, 20 μL of 5 mg/mL solution of MTT in sterile PBS was added to each well and further incubated for 4 h. Then, the supernatants were removed and replaced with 100 μL DMSO to solubilize the resulting purple formazan crystals produced from metabolically viable cells. Absorbance was measured with an iMark micro-plate reader (Bio-Rad, USA) at 595 nm. Two wells were used for each concentration of the products assayed and three independent experiments were performed. […] The percentage of cytotoxic activity of the assayed compounds was determined by the following formula: cytotoxicity (%) = [1 − (optical density of treated cells − optical density DMSO)/(optical density of ethanol control cells − optical density DMSO)] × 100.
(§3) Data were analyzed by one-way analysis of variance (ANOVA) and means were compared using Bonferroni's comparison test, with p ≤ 0.05 considered as statistically significant.
Background: Tetrazolium assays rely on reduction of a dye to a coloured formazan, in cell work by metabolically active cells.

In experiment [3] the test system is K562 chronic myeloid leukemia cells. In words: MTT cell proliferation assay. It counts as cell-based, human. As to conditions: for IC50: K562, MTT, 72 h, read-out: IC50 values and 95% confidence limits (lower, upper). The protocol:
as §1, §2, §3

Experiment [4] has as its system normal hepatocytes. The arrangement: method as in PMID 15223357. As to conditions: trypan blue exclusion method; cited from earlier work.
The subject of experiment [5] is K562 cells. In words: Cell cycle distribution by flow cytometry (PI). In kind it is cell-based, human. To be noted: 2 × IC50, 72 h. The method, then: […] After treatment, cells were harvested and washed twice with ice cold PBS. Then, cells were fixed with 70% cold ethanol and kept at 4°C for 24 h. Before analysis, the cells were washed twice with PBS and stained with a solution containing propidium iodide (PI, 50 μg/mL, Sigma-Aldrich CO, USA) and RNase A (100 μg/mL, Sigma-Aldrich CO, USA) in PBS (pH 7.4) for 30 min in the dark. DNA content was evaluated by flow cytometry. The relative distribution of at least 20,000 cells was analyzed using FlowJo software version 7.6.2 (Tree Star, Inc. OR, USA).
For orientation: A flow cytometer gives signals particle by particle.

Experiment [6] relates to CEM/ADR5000 cells (MDR, P-glycoprotein overexpressing). In words: cells. In kind it is cell-based, human. As to conditions: for IC50: CEM/ADR5000, MTT, 72 h, read-out: IC50 values and 95% confidence limits (lower, upper). The method, then: as §1
(§4) The latter concentration was then used for maintenance of the cells. Lucena 1 were continuously cultured in the presence of 60 nM DOX. Both cell lines were grown in drug-free medium 3-4 days before the experiments. Overexpression of P-glycoprotein (P-gp) in both MDR variants was verified by flow cytometry using FITC-labeled mouse anti-human P-gp (BD Pharmingen, USA). Cells were subcultured twice a week from frozen stocks and used before the 20th passage. All experiments were performed with cells in the logarithmic growth phase with cell viabilities over 90%, determined by trypan blue staining.
as §2, §3

Experiment [7] has as its system Lucena 1 cells (MDR, P-glycoprotein overexpressing). Briefly: cells. It counts as cell-based, human. As to conditions: for IC50: Lucena 1, MTT, 72 h, read-out: IC50 values and 95% confidence limits (lower, upper). The protocol: as §1, §4, §2, §3

In brackets after ≈: the same amount, converted by molar mass. Where two headings read alike, the source gives them in different places. A value given as a limit tells only on which side of the number the result lay.

What is called IC50 is the concentration at which inhibition is half-maximal. With `O=C(/C=C/c1ccccc1)c1ccc(O)cc1O` [Compound 1, 2′,4′-dihydroxychalcone], the “hypodiploid sub-G1 population” value in experiment [1] (ethanol control 1%) was determined as 10%; in experiment [5] (ethanol control 1%), 25%. Also, the figures for the “cells in the G2/M phase” value in experiment [1] (ethanol control 7%) and in experiment [5] were 34% and 19%, respectively. The IC50 is 6.6 µM in experiment [2]; less than 10 µM in experiment [2] (Homo sapiens); less than 30 µM in experiment [3] (Homo sapiens, K562, 72 h); 27.5 µM in experiment [3]; 34 µg/mL (≈ 142 µM) in experiment [4]; 9.9 µM in experiment [6]. The IC50 in experiment [6] (Homo sapiens, ADR5000, 72 h) was less than 10 µM; in experiment [7] (Homo sapiens, Lucena 1, 72 h) it was less than 30 µM; in experiment [7], 30 µM. Further, the “selectivity index (SI)” value in experiment [2] (IC50 HEK293T / IC50 CCRF-CEM) turned out to be 10.1; in experiment [2] (IC50 PBMC / IC50 CCRF-CEM), 12.5; in experiment [3] (IC50 PBMC / IC50 K562) it was 3.0. For the same compound, the results for the “resistant index (RI) = IC50 resistant cells/IC50 sensitive cells” value in experiment [6] (CEM/ADR5000 vs CCRF-CEM) and in experiment [7] (Lucena 1 vs K562) were 1.5 and 1.1, respectively. The “selectivity index (IC50 ratio)” value in experiment [6] (IC50 HEK293T / IC50 CEM/ADR5000) is 6.8; in experiment [6] (IC50 PBMC / IC50 CEM/ADR5000), 8.4.

The values above are taken from publication PMC4706877, “Antibacterial and Cytotoxic Activity of Compounds Isolated from Flourensia oolepis” (Evidence-based Complementary and Alternative Medicine : eCAM, 2015).
